From patent US20240240256A1, “MOLECULAR ANALYSIS OF EXTRACELLULAR VESICLES (EVs) FOR THE PREDICTION AND MONITORING OF DRUG RESISTANCE IN CANCER” (The General Hospital Corporation, priority 2023, published 2024)

Columns and labels:
BT474 = assay: MTT growth inhibition assay, paclitaxel drug sensitivity; type: cell-based; settings: Homo sapiens, BT-474, BT474 breast cancer cells, 72 h treatment, read-out: paclitaxel inhibitor concentration 50 (IC50)
Method: (§1) The human breast cancer cell lines, including HCC1954, BT474, MCF7, MDA-MB-231, HCC1937 cells, and normal breast cell, Hs371T, were purchased from American Type Culture Collection (ATCC) and cultured at 37° C. in 5% CO2. HCC1954, BT474, and HCC1937 cells were grown in RPMI-1640 (Hyclone), and MCF7, MDA-MB-231, and Hs371T cells were cultured in DMEM (Cyclone). All complete media contained 10% fetal bovine serum (FBS, ThermoFisher Scientific), 100 U/mL penicillin, and 100 μg/mL streptomycin (Millipore Sigma).
(§2) Drug sensitivity was determined by the 3-(4, 5-dimethylthiazol-2-yl)-2, 5-diphenyl tetrazolium bromide (MTT) colorimetric assay. First, cells were counted with a hemocytometer, seeded in a 96-well plate, and cultured for 24 h. After that, cells were treated with paclitaxel for 72 h: paclitaxel (1.00E-06-10 µM). Subsequently, MTT dye (Sigma-Aldrich; Merck KGaA) at a final concentration of 0.5 mg/ml was added for 3 hours. This was followed by replacing the medium and dissolving the formazan crystals with DMSO. The optical density (OD; absorbance at 540 nm) was measured using a plate reader (Tecan). Data (mean±SD of at least three independent experiments performed in triplets) are presented as the relative proliferation as a function of time after seeding.
(§3) MTT assay was performed for each cell line to determine the paclitaxel inhibitor concentration 50 (IC50) in the six breast cancer cell lines included.

HCC1937 = assay: as above; type: cell-based; settings: Homo sapiens, HCC1937 breast cancer cells, 72 h treatment, read-out: paclitaxel inhibitor concentration 50 (IC50)
Method: as §1, §2, §3

HCC1954 = assay: as above; type: cell-based; settings: Homo sapiens, HCC1954 breast cancer cells, 72 h treatment, read-out: paclitaxel inhibitor concentration 50 (IC50)
Method: as §1, §2, §3

MD-MB-231 = assay: as above; type: cell-based; settings: Homo sapiens, MD-MB-231 breast cancer cells, 72 h treatment, read-out: paclitaxel inhibitor concentration 50 (IC50)
Method: as §1, §2, §3

HCC1954 REPX = assay: MTT growth inhibition assay, paclitaxel-resistant subtype; type: cell-based, human
Method: To develop the paclitaxel resistance subtype, cells were continually exposed to stepwise increases in the concentration of paclitaxel over 16 to 18 weeks. Briefly, HCC1954 cells were seeded at a density of ˜5×10^5/mL in a T75 cell culture flask with 10 mL complete growth medium. After 4-6 hours of incubation, relatively low concentrations of paclitaxel (ranging from 1 to 150 nM) were added into the medium. Cells were left in paclitaxel for three days or until a stable cell re-population formed. Regular medium replenishment was performed throughout this period. The paclitaxel concentration was then increased by 0.5 to 2-fold. This stepwise dose escalation continued for 16 to 18 weeks until the paclitaxel concentration reached at least ten times the starting concentration. […]
Drug sensitivity was determined by the 3-(4, 5-dimethylthiazol-2-yl)-2, 5-diphenyl tetrazolium bromide (MTT) colorimetric assay. First, cells were counted with a hemocytometer, seeded in a 96-well plate, and cultured for 24 h. […] The optical density (OD; absorbance at 540 nm) was measured using a plate reader (Tecan). […]
To generate a resistance cell model in vitro (HCC1954 REPX), the HCC1954 cell line was treated with increasing concentrations of paclitaxel, and cell viability was re-evaluated after 18 weeks of treatment.

IC50 (BT474): 100 nM | IC50 (HCC1937): 9900 nM | IC50 (HCC1954): 14 nM | IC50 (HCC1954 REPX; Homo sapiens, HCC1954 REPX paclitaxel-resistant subtype, after 18 weeks of paclitaxel treatment, MTT): 1800 nM
SMILES: CC(=O)O[C@H]1C(=O)[C@@]2(C)[C@H]([C@H](OC(=O)c3ccccc3)[C@]3(O)C[C@H](OC(=O)[C@H](O)[C@@H](NC(=O)c4ccccc4)c4ccccc4)C(C)=C1C3(C)C)[C@]1(OC(C)=O)CO[C@@H]1C[C@@H]2O [paclitaxel, Paclitaxel]
IC50 (MD-MB-231): 600 nM | increase in paclitaxel-resistance (HCC1954 REPX; IC50 in HCC1954 REPX compared to parental HCC1954): 128.57 fold
